Measured values taken from US5858670A, “Bio-oligomer libraries and a method of use thereof” (The Arizona Board of Regents, priority 1996, dated 1999).
Read-outs that look alike come from different tables or passages of the source. Where no end group is shown, it is not given here. [ ]: non-standard residue; d: D form. Ahx = NCCCCCC(=O)O; βAla = NCCC(=O)O

What was measured:
streptavidin = target: T1, streptavidin (Streptomyces avidinii, UniProt P22629); assay: biotin inhibition of LHPQF-resin staining by streptavidin-alkaline phosphatase; format: binding
T1 construct: purchased Pierce, Rockford, Ill
T1 sequence (P22629 25-183, species assumed): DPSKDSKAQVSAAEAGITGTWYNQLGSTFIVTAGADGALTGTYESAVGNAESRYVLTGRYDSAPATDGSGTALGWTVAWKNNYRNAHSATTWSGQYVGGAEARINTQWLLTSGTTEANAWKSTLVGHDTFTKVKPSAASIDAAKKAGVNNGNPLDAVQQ
Protocol: FIG. 8. […] A: 100 nM; B: 10 nM; C: 1 nM; and D: 0.1 nM biotin. Blank beads (β-Ala-aminocaproic acid-resin) were mixed 1:1 with the LHPQFD-resin prior to incubating with streptavidin-alkaline phosphatase to serve as an internal negative control.
The LHPQF-resin was then mixed with streptavidin-alkaline phosphatase in the presence of varying concentration of biotin. […] The inhibition study establishes that the HPQ consensus sequence binds to the biotin-binding site of streptavidin.

[1] = UV/VIS irradiation of ONb-linked peptide resins, HPLC of released product; format: physicochemical; conditions: in water
Protocol: Each peptide was irradiated for 1 and 3 hours with ultraviolet (UV) and visible (VIS) light in 0.3 ml of water or 3/7 mixture of chloroethanol:dichloromethane. A total of 16+16 experiments were run and assayed.
After exposure the supernatant was filtered off, lyophilized and re-dissolved to equal volumes of MeOH (0.3 ml). The products were analyzed on the HPLC.

anti-v-mos MAb = assay: solution phase binding studies with [3H]Ac-v-mos radioligand; parameters: species or system mouse; conditions: competition with 20 nM [3H]Ac-v-mos for 10 μg/ml anti-v-mos MAb
Protocol: Peptide ligand affinity for anti-v-mos mAb was measured by solution phase binding studies using [^3 H]acetyl v-mos peptide ([^3 H]Ac-v-mos) as the radioligand. The radioligand was prepared by N-terminal acetylation of v-mos peptide, prior to the deprotection of the side chains, with an equimolar amount of [^3 H]sodium acetate (specific activity=2.52 Ci/mmole, New England Nuclear, Boston, Mass.). […] Specific binding was defined as the difference between [^3 H]Ac-v-mos binding in-the presence (nonspecific) and absence (total) of 100 μM unlabelled v-mos peptide for each [^3 H]Ac-v-mos concentration. Bound radioligand was separated by centrifugation using a 10-fold excess (binding capacity relative to immunoglobulin used) of Protein-G Sepharose (Pharmacia) to precipitate the antibody. […] Over 50% of the total binding was specific in the inhibition studies. Saturation and inhibition binding constants were determined for single site binding by nonlinear regression analysis as previously described (Knapp and Yamamura, 1990, Life Sci. 46:1457-1463).

[2] = test system: anti-v-mos monoclonal antibody; assay: bead staining with anti-v-mos monoclonal antibody and alkaline phosphatase secondary antibody (Example 8); format: binding, mouse; conditions: 1 μg/ml MAb, secondary antibody 1:2000, BCIP/NBT, 15 minutes
Protocol: The long v-mos beads were mixed with a thousand fold excess of the short v-mos beads. Two milliliters of the purified anti-v-mos monoclonal antibody (1 μg/ml) in PBS with 0.1% Tween 20 was added to the mixture of long and short v-mos beads and incubated at room temperature for one hour with gentle mixing. […]. The beads were then washed on a small polypropylene disposable column (obtained from Isolab) where the beads were retained by the frit. The beads were then mixed with 2 ml of a secondary antibody at 1:2000 dilution for one hour. After washing, the beads were poured into a polystyrene petri dish and allowed to settle. The supernatant was removed and a solution of 5-bromo-4-chloro-3-indoyl phosphate and nitro blue tetrazolium was gently added as a substrate.
This made it possible immediately to detect a single dark bead within a lawn of thousands of colorless beads. The distinction between the beads is illustrated in FIGS. 2 to 4, all of which are photographs at 40× magnification of the beads distributed in petri dishes. […] Accordingly, the beads that contained the peptide sequence of interest were readily distinguished and isolated from the other beads in the library.

anti-v-mos = conditions: cited from earlier work
[3] = test system: anti-v-mos monoclonal antibody; assay: PAM resin bead staining with anti-v-mos monoclonal antibody and labelled secondary antibody (Example 9); format: binding, mouse; conditions: 1 ug/ml MAb, secondary antibody 1:100, ABTS with H2O2, 15 minutes
Protocol: Approximately 0.1 mg of the PAM resin/v-mos peptide described above was mixed with a hundred-fold excess of N^β -Fmoc-alanine PAM resin beads obtained from Bachem, Inc. Two ml of the purified monoclonal antibody (1 ug/ml) in PBS plus 0.1% Tween 20 were added to the peptide/support mixture and incubated at room temperature for 45 minutes with gentle mixing.
The beads were washed on a small polypropylene disposable column (obtained from Isolab) which retained the beads on a frit. The beads were then mixed with 2 ml of […] secondary antibody (1:100 dilution) for one hour. After washing, the beads were spread on a piece of glass filter and soaked in 2,2'-azinobis (3-ethylbenzthiozoline sulfonic acid) (ABTS) substrate with H2 O2. […] A small surrounding lighter green halo formed on the glass filter. […] The v-mos beads were readily distinguished.

anti-β-endorphin MAb [4] = assay: library bead screening with biotinylated anti-β-endorphin MAb and streptavidin-alkaline phosphatase; format: binding; conditions: recycled pentapeptide library, 16 hours with biotinylated MAb
Protocol: Prior to using the same random peptide library to screen with anti-β-endorphin MAb, all the blue beads that had stained for streptavidin-alkaline phosphatase alone were removed. The remaining beads were then treated with 8M guanidine hydrochloride to remove any bound protein. This recycled library was then mixed with biotinylated anti-β-endorphin MAb (anti-β-endorphin, clone 3-E7, was obtained commercially from Boehringer Mannheim, Indianapolis, Ind.) for 16 hours. After extensive washing, a secondary step with streptavidin-alkaline phosphatase was used to trigger the staining reaction for the ELISA. […] Peptide analogues with various carboxyl terminus of these ligand leads were synthesized and their affinity (Ki) was determined using [^3 H]Leu-enkaphalin (New England Nuclear, Boston, Mass.) as the labelled ligand and the unlabelled peptides as the competing ligand (anti-β-endorphin assay, Section 10.1.2, supra).

anti-β-endorphin MAb [5] = assay: anti-β-endorphin binding assay: peptide inhibition of [3H][Leu]enkephalin binding, solution phase; conditions: for Ki: competition with 5.0 nM [3H][Leu]enkephalin
Protocol: Peptide ligand binding affinities for the anti-β-endorphin monoclonal antibody were determined in solution phase. […] Specific binding was defined as the difference between binding measured in the presence or absence of 1.0 μM unlabelled [Leu]enkephalin. Bound radioligand was precipitated by the addition of a 10-fold excess of Protein-G Sepharose (Pharmacia) followed by an overnight incubation (23°-24° C.). The Protein-G Sepharose was collected by centrifugation (13,000×g for 5 minutes) and the pellets suspended in 250 μl 5% (v/v) acetic acid before transfer to vials for liquid scintillation counting. […] Peptide ligand inhibition curves were produced for eight concentrations of the peptide over a 400-fold range. Binding data for saturation and inhibition studies were analyzed by weighted-nonlinear regression methods using appropriate one site models reported by Knapp et al. (1990, J. Pharmacol. Exp. Ther. 255:1278-1282). Ki values for inhibition binding constants were calculated using the method of Cheng and Prusoff (1973, Biochem. Pharmacol. 22:3099-3102). Each Ki value was calculated from three to four independent determinations.

[6] = peptide with carboxyl terminus --NH2, read-out: Ki, Carboxyl Terminus --NH2
[7] = peptide with carboxyl terminus --OH, read-out: Ki, Carboxyl Terminus --OH

Compound: O=C(O)CCCC[C@@H]1SC[C@@H]2NC(=O)N[C@@H]21 [Biotin, biotin]
- inhibition of staining of LHPQF-resin (streptavidin; biotin 0.1 nM): no effect on the staining
- inhibition of staining of LHPQF-resin (streptavidin; biotin 1.0 nM): partially inhibited the staining
- inhibition of staining of LHPQF-resin (streptavidin; biotin 10 nM): partially inhibited the staining
- inhibition of staining of LHPQF-resin (streptavidin; biotin 100 nM): completely blocked staining
- effect on staining of LHPQF-resin mimotope beads (streptavidin; biotin 100, 10, 1 and 0.1 nM (figure legend)): concentration-dependent inhibitory effect

Compound: Fmoc-Trp-Tyr (OBu^t)-Phe-βNb-gAla-ACA-EDA-PepSyn K [peptide i]
- cleavage product [1]: cleaved to a single product

Compound: GFGSVY-NH2
- Ki (anti-v-mos MAb): 246 to 337 µM

Compound: GFGSVY-OH
- Ki (anti-v-mos MAb): > 1000 µM

Compound: GFGSVY[βAla]-NH2
- Ki (anti-v-mos MAb): 409 to 442 µM

Compound: GFGSVY[βAla]-OH
- Ki (anti-v-mos MAb): 529 to 770 µM

Compound: GRRAYE-NH2
- Ki (anti-v-mos MAb): 24.7 ± 7 µM

Compound: GRRAYE-OH
- Ki (anti-v-mos MAb): 6.79 ± 2.31 µM

Compound: GRRAYE[βAla]-NH2
- Ki (anti-v-mos MAb): 9.02 to 20.4 µM

Compound: GRRAYE[βAla]-OH
- Ki (anti-v-mos MAb): 15.1 ± 0.5 µM

Compound: GRREGP[βAla]-NH2
- Ki (anti-v-mos MAb): 26.9 ± 6.2 µM

Compound: GRRGME-OH
- Ki (anti-v-mos MAb): > 100 µM

Compound: GRRGME[βAla]-NH2
- Ki (anti-v-mos MAb): 24 ± 8.4 µM

Compound: GRRPYG-OH
- Ki (anti-v-mos MAb): > 1000 µM

Compound: GRRPYG[βAla]-NH2
- Ki (anti-v-mos MAb): 20.5 ± 4.5 µM

Compound: GSVYKA [short v-mos beads, residue 106-111 of the v-mos gene product on polyacrylamide bead; negative control, reference compound]
- bead colour after staining [2]: remained colorless

Compound: GSVYKA [short v-mos peptide]
- affinity of the antibody (anti-v-mos): negligible affinity

Compound: Gly-Phe-Gly-Ser-Val-Tyr-aminocaproic acid-β-Ala-resin (GFGSVY-{Ahx-βAla-PAM resin}) [PAM resin/v-mos peptide beads]
- bead colour after staining [3]: turned dark green

Compound: LGSGGFGSVYKA [residues 100 to 111 of the v-mos oncogene product, reference compound]
- Ki (anti-v-mos MAb): 3.2 ± 0.4 µM

Compound: Leu-Gly-Ser-Gly-Gly-Phe-Ser-Val-Tyr-Lys-Ala-aminocaproic acid-ethylenediamine resin [long v-mos beads]
- bead colour after staining [2]: turned purple

Compound: YGALQ
- identified as ligand bead in the screening (anti-β-endorphin MAb [4]): identified in this screening

Compound: YGGFA
- identified as ligand bead in the screening (anti-β-endorphin MAb [4]): identified in this screening
- Ki (anti-β-endorphin MAb [5]; [6]): 0.072 ± 0.0164 µM
- Ki (anti-β-endorphin MAb [5]; [7]): 0.0329 ± 0.002 µM

Compound: YGGFQ
- identified as ligand bead in the screening (anti-β-endorphin MAb [4]): identified in this screening
- Ki (anti-β-endorphin MAb [5]; [6]): 0.0401 ± 0.006 µM
- Ki (anti-β-endorphin MAb [5]; [7]): 0.015 ± 0.0017 µM

Compound: YGGFT
- identified as ligand bead in the screening (anti-β-endorphin MAb [4]): identified in this screening
- Ki (anti-β-endorphin MAb [5]; [6]): 0.0652 ± 0.0168 µM
- Ki (anti-β-endorphin MAb [5]; [7]): 0.0369 ± 0.0077 µM

Compound: YGGLQ
- Ki (anti-β-endorphin MAb [5]; [6]): 2.91 ± 0.695 µM
- Ki (anti-β-endorphin MAb [5]; [7]): 1.98 ± 0.303 µM

Compound: YGGLS
- identified as ligand bead in the screening (anti-β-endorphin MAb [4]): identified in this screening
- Ki (anti-β-endorphin MAb [5]; [6]): 0.991 ± 0.052 µM
- Ki (anti-β-endorphin MAb [5]; [7]): 0.726 ± 0.134 µM

Compound: YGGMV
- identified as ligand bead in the screening (anti-β-endorphin MAb [4]): identified in this screening
- Ki (anti-β-endorphin MAb [5]; [6]): 14 ± 1.11 µM
- Ki (anti-β-endorphin MAb [5]; [7]): 8.78 ± 1.5 µM

Compound: [^3 H][Leu]enkephalin [reference compound]
- Kd (anti-β-endorphin MAb [5]; saturation analysis, n=3, 5 radioligand concentrations 1.87-30 nM): 0.00979 ± 0.00463 µM
